Measured values: US9040534B2, “[1,2,4]triazolo[4,3-a]pyrazines as P2X7 modulators” (Janssen Pharmaceutica NV, priority 2013, dated 2015)

Assays:
P2X7 [1] = target: T1, P2X7 (Homo sapiens (Human), UniProt Q99572); assay: P2X7 antagonism in human PBMCs (LPS + Bz-ATP induced IL-1β release, ELISA); type: cell-based; details: 0.5 mM Bz-ATP; for remaining activity at 10 µM: P2X7, 10 μM compound, human PBMC, read-out: PBMC 10 μM (% control); for PBMC 1 μM (% control): 1 μM compound
Description: Human blood was collected using a blood donor program. PBMCs were isolated from blood using a Ficoll density gradient technique. Briefly, blood was laid on Ficoll solution and centrifuged at RT for 20 minutes at 2000 rpm. The buffy layer (between red blood cells and plasma) was carefully collected by aspiration, washed with PBS and centrifuged again at 1500 rpm for 15 minutes. The resulting cell pellet was washed and plated on 96 well-plates for experiments. For the Mouse/Human Whole Blood experiments, 150 μl of either mouse or human blood was platted on 96 well-plates. Lipopolysaccharide (LPS) (30 ng/ml) was added to each well and incubated for 1 hour. Test compounds were then added and incubated for 30 minutes. The P2X7 agonist, 2′(3′)-O-(4-benzoylbenzoyl) adenosine 5′-triphosphate (Bz-ATP) was then added at a final concentration of 0.5 mM (PBMC) or 1 mM (blood). Cells were incubated for an additional 1.5 hours. At that point, supernatant was collected and stored for IL-1β assay using manufacturer's protocol for enzyme-linked immunosorbent assay (ELISA). Data was expressed as percent control, where control is defined as the difference in IL-1β release in LPS+Bz-ATP samples and LPS only samples. Data was plotted as response (% control) versus concentration to generate IC50 values. […] In Table 2, when the data cell has been left blank, it is intended to mean that the compound was not tested in that assay.

rat P2X7 [2] = target: T2, rat P2X7 (Rattus norvegicus (Rat), UniProt Q64663); assay: Ca2+ flux (FLIPR) in 1321N1 cells expressing recombinant rat P2X7 channel; type: cell-based; details: 250 μM BzATP
T2 sequence (Q64663 whole entry): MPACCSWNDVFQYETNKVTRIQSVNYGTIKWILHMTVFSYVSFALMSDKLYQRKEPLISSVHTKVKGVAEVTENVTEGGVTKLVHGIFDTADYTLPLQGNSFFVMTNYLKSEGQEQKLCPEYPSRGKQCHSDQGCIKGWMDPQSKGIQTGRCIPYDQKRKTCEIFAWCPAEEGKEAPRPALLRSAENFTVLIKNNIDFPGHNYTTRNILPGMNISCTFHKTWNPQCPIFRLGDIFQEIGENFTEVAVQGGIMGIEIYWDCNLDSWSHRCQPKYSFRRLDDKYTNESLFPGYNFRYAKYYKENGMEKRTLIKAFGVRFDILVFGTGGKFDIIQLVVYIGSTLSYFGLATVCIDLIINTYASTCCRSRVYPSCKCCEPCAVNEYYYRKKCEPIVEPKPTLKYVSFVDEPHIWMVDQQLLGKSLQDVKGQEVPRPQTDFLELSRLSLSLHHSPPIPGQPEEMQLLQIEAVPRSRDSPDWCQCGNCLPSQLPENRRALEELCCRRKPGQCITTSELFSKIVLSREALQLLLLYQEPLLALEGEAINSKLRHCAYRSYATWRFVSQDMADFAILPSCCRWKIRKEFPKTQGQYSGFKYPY
Description: (§1) (A) Ca^2+ Flux: 1321N1 cells expressing the recombinant human, rat or mouse P2X7 channel was cultured in HyQ DME/(HyClone/Dulbecco's Modified Eagle Medium) high glucose supplemented with 10% Fetal Bovine Serum (FBS) and appropriate selection marker. Cells were seeded at a density of 25000 cells/well (96-well clear bottom black walled plates) in 100 μl volume/well. On the day of the experiment, cell plates were washed with assay buffer, containing (in mM): 130 NaCl, 2 KCl, 1 CaCl2, 1 MgCl2, 10 HEPES, 5 glucose; pH 7.40 and 300 mOs. After the wash, cells were loaded with the Calcium-4 dye (Molecular Device) and incubated in the dark for 60 minutes. Test compounds were prepared at 250× the test concentration in neat DMSO. Intermediate 96-well compound plates were prepared by transferring 1.2 μL of the compound into 300 μL of assay buffer. A further 3× dilution occurred when transferring 50 μL/well of the compound plate to 100 μL/well in the cell plate. Cells were incubated with test compounds and dye for 30 minutes. […] The fluorescence change was measured 180 seconds after adding the agonist.

rat P2X7 [3] = target: T2, rat P2X7; assay: Radioligand binding, rat P2X7-1321N1 cell membranes, tritiated A-804598 tracer; details: 1 hour at 4° C.
Description: (§2) (B) Radioligand binding: human or rat P2X7-1321N1 cells were collected and frozen @ −80° C. On the day of the experiment, cell membrane preparations were made according to standard published methods. The total assay volume was 100 μl:10 μl compound (10×)+(b) 40 μl tracer (2.5×)+50 μl membrane (2×). The tracer used for the assay was tritiated A-804598. The compound can be prepared as described in the literature. (Donnelly-Roberts, D. Neuropharmacology 2009, 56 (1), 223-229.) Compounds, tracer and membranes were incubated for 1 hour @ 4° C. The assay was terminated by filtration (GF/B filters pre-soaked with 0.3% PEI) and washed with washing buffer (Tris-HCl 50 mM). The IC50 generated in the binding assay was corrected for tracer concentration and affinity of the tracer to derive at the affinity (Ki) of the test compounds.

P2X7 [4] = target: T1, P2X7; assay: Radioligand binding, human P2X7-1321N1 cell membranes, tritiated A-804598 tracer; details: 1 hour at 4° C.
Description: as §2, with “The total assay volume was 100 μl:10 μl compound (10×)+(b) 40 μl tracer (2.5×)+50 μl membrane (2×). The tracer used for the assay was tritiated A-804598.” left out, “(Donnelly-Roberts, D. Neuropharmacology 2009, 56 (1), 223-229.) Compounds, tracer and membranes were incubated for 1 hour @ 4° C.” left out

P2X7 [5] = target: T1, P2X7; assay: Ca2+ flux (FLIPR) in 1321N1 cells expressing recombinant human P2X7 channel; type: cell-based; details: 250 μM BzATP
Description: as §1

T1 sequence (Q99572 whole entry): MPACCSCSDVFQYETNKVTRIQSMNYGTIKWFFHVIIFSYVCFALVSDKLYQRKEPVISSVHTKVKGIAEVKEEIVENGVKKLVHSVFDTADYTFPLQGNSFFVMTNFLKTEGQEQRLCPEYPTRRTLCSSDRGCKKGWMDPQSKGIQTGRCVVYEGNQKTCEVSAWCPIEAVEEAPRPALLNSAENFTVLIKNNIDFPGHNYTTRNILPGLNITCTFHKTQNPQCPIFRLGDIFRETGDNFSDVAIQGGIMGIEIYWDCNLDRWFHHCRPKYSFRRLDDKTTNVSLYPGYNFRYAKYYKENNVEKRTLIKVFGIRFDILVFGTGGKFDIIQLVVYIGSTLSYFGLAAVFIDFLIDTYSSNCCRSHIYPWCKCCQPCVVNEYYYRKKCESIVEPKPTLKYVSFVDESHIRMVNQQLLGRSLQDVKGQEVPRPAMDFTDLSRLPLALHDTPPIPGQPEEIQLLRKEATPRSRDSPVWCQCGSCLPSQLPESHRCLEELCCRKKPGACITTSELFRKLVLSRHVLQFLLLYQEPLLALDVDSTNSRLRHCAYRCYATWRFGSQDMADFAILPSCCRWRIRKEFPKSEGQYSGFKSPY

Row | Compound | remaining activity at 10 µM (P2X7 [1]) [%] | PBMC 1 μM (% control) (P2X7 [1]) | IC50 (rat P2X7 [2]) [nM] | Ki (rat P2X7 [3]) [nM] | Ki (P2X7 [4]) [nM] | IC50 (P2X7 [5]) [nM]
1 | O=C1c2nnc(-c3cnccn3)n2C[C@@H](C2CC2)N1Cc1cccc(C(F)(F)F)c1Cl (single isomer, unassigned) [Example 62] | 14.1 | – | – | – | – | –
2 | O=C1c2nnc(-c3cnccn3)n2C[C@H](C2CC2)N1Cc1cccc(C(F)(F)F)c1Cl (single isomer, unassigned) [Example 63] | 27.3 | – | – | – | – | –
3 | O=C1c2nnc(-c3cnccn3)n2CCN1Cc1cccc(Cl)c1Cl [Example 2, 7-(2,3-Dichlorobenzyl)-3-pyrazin-2-yl-6,7-dihydro[1,2,4]triazolo[4,3-a]pyrazin-8(5H)-one] | – | 50.6 | – | – | – | –
4 | O=C1c2nnc(-c3cnccn3)n2CCN1Cc1cccc(C(F)(F)F)c1Cl [Example 3, 7-[2-Chloro-3-(trifluoromethyl)benzyl]-3-pyrazin-2-yl-6,7-dihydro[1,2,4]triazolo[4,3-a]pyrazin-8(5H)-one] | – | −0.6 | 9310 | 12.6 | 6.3 | 44.2
5 | C[C@@H]1Cn2c(nnc2-c2cnccn2)C(=O)N1Cc1cccc(Cl)c1Cl [Example 12, (6R)-7-(2,3-Dichlorobenzyl)-6-methyl-3-pyrazin-2-yl-6,7-dihydro[1,2,4]triazolo[4,3-a]pyrazin-8(5H)-one] | 20.6 | – | – | – | – | –
6 | C[C@H]1Cn2c(nnc2-c2ccccn2)C(=O)N1Cc1cccc(C(F)(F)F)c1Cl [Example 18, (6S)-7-[2-Chloro-3-(trifluoromethyl)benzyl]-6-methyl-3-pyridin-2-yl-6,7-dihydro[1,2,4]triazolo[4,3-a]pyrazin-8(5H)-one] | – | – | 316 | 2 | 5 | < 1
7 | C[C@H]1Cn2c(nnc2-c2ncco2)C(=O)N1Cc1cccc(C(F)(F)F)c1Cl [Example 20, (6S)-7-[2-Chloro-3-(trifluoromethyl)benzyl]-6-methyl-3-(1,3-oxazol-2-yl)-6,7-dihydro[1,2,4]triazolo[4,3-a]pyrazin-8(5H)-one] | – | – | 2000 | 5 | 4 | 3.2
8 | C[C@H]1Cn2c(nnc2-c2ccn(C)n2)C(=O)N1Cc1cccc(C(F)(F)F)c1Cl [Example 23, (6S)-7-[2-Chloro-3-(trifluoromethyl)benzyl]-6-methyl-3-(1-methyl-1H-pyrazol-3-yl)-6,7-dihydro[1,2,4]triazolo[4,3-a]pyrazin-8(5H)-one] | – | – | 1220 | 3.2 | 3.2 | 2.5
9 | Cc1cc(-c2nnc3n2C[C@H](C)N(Cc2cccc(C(F)(F)F)c2Cl)C3=O)n[nH]1 [Example 26, (6S)-7-[2-Chloro-3-(trifluoromethyl)benzyl]-6-methyl-3-(5-methyl-1H-pyrazol-3-yl)-6,7-dihydro[1,2,4]triazolo[4,3-a]pyrazin-8(5H)-one] | – | – | 375 | 1 | 3.2 | 1.2
10 | C[C@H]1Cn2c(nnc2-c2cccnc2)C(=O)N1Cc1cccc(C(F)(F)F)c1Cl [Example 29, (6S)-7-[2-Chloro-3-(trifluoromethyl)benzyl]-6-methyl-3-pyridin-3-yl-6,7-dihydro[1,2,4]triazolo[4,3-a]pyrazin-8(5H)-one] | – | – | 122 | 5.6 | 4 | 1
11 | C[C@H]1Cn2c(nnc2-c2ccc(F)cn2)C(=O)N1Cc1cccc(C(F)(F)F)c1Cl [Example 30, (6S)-7-[2-Chloro-3-(trifluoromethyl)benzyl]-3-(5-fluoropyridin-2-yl)-6-methyl-6,7-dihydro[1,2,4]triazolo[4,3-a]pyrazin-8(5H)-one] | 3.3 | – | – | – | – | 0.9
12 | C[C@H]1Cn2c(nnc2-c2cncc(F)c2)C(=O)N1Cc1cccc(C(F)(F)F)c1Cl [Example 45, (6S)-7-[2-Chloro-3-(trifluoromethyl)benzyl]-3-(5-fluoropyridin-3-yl)-6-methyl-6,7-dihydro[1,2,4]triazolo[4,3-a]pyrazin-8(5H)-one] | – | – | 12600 | 5 | 6.3 | 100
13 | Cc1ncccc1-c1nnc2n1C[C@H](C)N(Cc1cccc(C(F)(F)F)c1Cl)C2=O [Example 48, (6S)-7-[2-Chloro-3-(trifluoromethyl)benzyl]-6-methyl-3-(2-methylpyridin-3-yl)-6,7-dihydro[1,2,4]triazolo[4,3-a]pyrazin-8(5H)-one] | – | – | 543 | – | 12.6 | 13.2
14 | C[C@H]1Cn2c(nnc2C2CCCN(C(=O)OC(C)(C)C)C2)C(=O)N1Cc1cccc(C(F)(F)F)c1Cl (stereo partly drawn) [Example 59, (6S)-tert-Butyl3-{7-[2-chloro-3-(trifluoromethyl)benzyl]-6-methyl-8-oxo-5,6,7,8-tetrahydro[1,2,4]triazolo[4,3-a]pyrazin-3-yl}piperidine-1-carboxylate] | 10.9 | – | 1140 | – | – | –
15 | C[C@H]1Cn2c(nnc2C2CCCNC2)C(=O)N1Cc1cccc(C(F)(F)F)c1Cl (stereo partly drawn) [Example 60, (6S)-7-[2-Chloro-3-(trifluoromethyl)benzyl]-6-methyl-3-piperidin-3-yl-6,7-dihydro[1,2,4]triazolo[4,3-a]pyrazin-8(5H)-one] | – | – | > 10000 | – | 631 | > 10000
16 | CC[C@H]1Cn2c(nnc2-c2cnccn2)C(=O)N1Cc1cccc(C(F)(F)F)c1Cl [Example 71, (6S)-7-[2-Chloro-3-(trifluoromethyl)benzyl]-6-ethyl-3-pyrazin-2-yl-6,7-dihydro[1,2,4]triazolo[4,3-a]pyrazin-8(5H)-one] | – | – | 10.3 | – | 1.3 | 0.3
17 | CC[C@H]1Cn2c(nnc2-c2cc[nH]n2)C(=O)N1Cc1cccc(C(F)(F)F)c1Cl [Example 74, (6S)-7-[2-Chloro-3-(trifluoromethyl)benzyl]-6-ethyl-3-(1H-pyrazol-3-yl)-6,7-dihydro[1,2,4]triazolo[4,3-a]pyrazin-8(5H)-one] | – | – | 5.1 | – | 10 | 1.5
18 | CC[C@H]1Cn2c(nnc2-c2ccc(F)cn2)C(=O)N1Cc1cccc(C(F)(F)F)c1Cl [Example 76, (6S)-7-[2-Chloro-3-(trifluoromethyl)benzyl]-6-ethyl-3-(5-fluoropyridin-2-yl)-6,7-dihydro[1,2,4]triazolo[4,3-a]pyrazin-8(5H)-one] | – | – | 158 | 1.6 | 2.5 | < 1
19 | Cc1cccc(C)c1CN1C(=O)c2nnc(-c3cnccn3)n2C[C@@H]1C [Example 87, (6S)-7-(2,6-Dimethylbenzyl)-6-methyl-3-pyrazin-2-yl-6,7-dihydro[1,2,4]triazolo[4,3-a]pyrazin-8(5H)-one] | – | – | 1560 | – | 31.6 | 42.5
20 | C[C@H]1Cn2c(nnc2-c2cnccn2)C(=O)N1Cc1cccc(C(F)(F)F)c1 [Example 88, (6S)-6-Methyl-3-pyrazin-2-yl-7-[3-(trifluoromethyl)benzyl]-6,7-dihydro[1,2,4]triazolo[4,3-a]pyrazin-8(5H)-one] | – | – | 6040 | – | 5 | 4
